Source: ChEMBL document CHEMBL5512637, “Development of Membrane-Targeting Fluorescent 2-Phenyl-1H-phenanthro[9,10-d]imidazole-Antimicrobial Peptide Mimic Conjugates against Methicillin-Resistant Staphylococcus aureus” (J Med Chem, 2024)
Calls of active or inactive are those of the source. The rule behind the calls is not given here.

Experiments:
Staphylococcus aureus [1] = assay: Antibacterial activity against Staphylococcus aureus ATCC 29213 incubated for 16 to 18 hrs CLSI based by microbroth dilution assay; type: functional; settings: time 16-18 hrs
Escherichia coli = assay: Antibacterial activity against Escherichia coli ATCC 25922 incubated for 16 to 18 hrs CLSI based by microbroth dilution assay; type: functional; settings: time 16-18 hrs
Staphylococcus aureus [2] = assay: Antibacterial activity against methicillin-resistant Staphylococcus aureus clinical isolate M-2 incubated for 16 to 18 hrs CLSI based by microbroth dilution assay; type: functional; settings: time 16-18 hrs
Staphylococcus aureus [3] = assay: Antibacterial activity against methicillin-resistant Staphylococcus aureus clinical isolate M-4 incubated for 16 to 18 hrs CLSI based by microbroth dilution assay; type: functional; settings: time 16-18 hrs
Staphylococcus aureus [4] = assay: Antibacterial activity against methicillin-resistant Staphylococcus aureus clinical isolate M-6 incubated for 16 to 18 hrs CLSI based by microbroth dilution assay; type: functional; settings: time 16-18 hrs
Staphylococcus aureus [5] = assay: Antibacterial activity against methicillin-resistant Staphylococcus aureus clinical isolate M-7 incubated for 16 to 18 hrs CLSI based by microbroth dilution assay; type: functional; settings: time 16-18 hrs
Staphylococcus aureus [6] = assay: Antibacterial activity against methicillin-resistant Staphylococcus aureus clinical isolate M-9 incubated for 16 to 18 hrs CLSI based by microbroth dilution assay; type: functional; settings: time 16-18 hrs
Staphylococcus aureus [7] = assay: Antibacterial activity against methicillin-resistant Staphylococcus aureus clinical isolate M-10 incubated for 16 to 18 hrs CLSI based by microbroth dilution assay; type: functional; settings: time 16-18 hrs
[8] = Hemolytic activity in sheep erythrocytes incubated for 1 hr by absorbance based assay; type: toxicity, cell-based, Ovis aries, Erythrocyte
[9] = Selectivity index, ratio of HC50 for sheep erythrocytes to MIC for Staphylococcus aureus ATCC 29213; type: toxicity; settings: read-out: Selectivity Index
Staphylococcus aureus [10] = assay: Bactericidal activity against Staphylococcus aureus ATCC 29213 at 4 to 8 times MIC by time kill assay; type: functional, organism-based; settings: TDE = time-dependent effect
Staphylococcus aureus [11] = assay: Bactericidal activity against methicillin-resistant Staphylococcus aureus clinical isolate M-4 at 4 to 8 times MIC by time kill assay; type: functional, organism-based; settings: TDE = time-dependent effect
Staphylococcus aureus [12] = assay: Bactericidal activity against Staphylococcus aureus ATCC 29213 by time kill assay; type: functional, organism-based
Staphylococcus aureus [13] = assay: Bactericidal activity against Staphylococcus aureus ATCC 29213 at 4 times MIC incubated for 2 hrs by time kill assay relative to control; type: functional
Staphylococcus aureus [14] = assay: Induction of resistance development in Staphylococcus aureus ATCC 29213 assessed as fold increase in MIC at MIC measured after 17 passages relative to control; type: functional
Staphylococcus aureus [15] = assay: Bactericidal activity against Staphylococcus aureus ATCC 29213 assessed as fold increase in fluorescence intensity at MIC incubated for 180 mins relative to control; type: functional; settings: 3 h
Staphylococcus aureus [16] = assay: Antibacterial activity against Staphylococcus aureus ATCC 29213 at 1 ug/ml in presence of exogenous DNA; type: functional, organism-based; settings: dose 1.0 µg/ml
Staphylococcus aureus [17] = assay: Disruption of cell membrane in methicillin-resistant Staphylococcus aureus clinical isolate M-4 assessed as rough cell membrane at 8 times MIC incubated for 1 hr by SEM analysis; type: functional, organism-based
Staphylococcus aureus [18] = assay: Disruption of cell membrane in methicillin-resistant Staphylococcus aureus clinical isolate M-4 assessed as wrinkled cell membrane at 8 times MIC incubated for 1 hr by SEM analysis; type: functional, organism-based
Staphylococcus aureus [19] = assay: Disruption of cell membrane in methicillin-resistant Staphylococcus aureus clinical isolate M-4 assessed as increase in fluorescence intensity measured for 30 mins by DiSC3(5) dye based analysis; type: functional, organism-based; settings: dose 8-32 µg/ml
Staphylococcus aureus [20] = assay: Disruption of cell membrane in methicillin-resistant Staphylococcus aureus clinical isolate M-4 assessed as decrease in blue fluorescence at 4 ug/ml incubated for 4 hrs by DAPI/PI staining based laser confocal microscopy; type: functional, organism-based; settings: dose 4.0 µg/ml
Staphylococcus aureus [21] = assay: Disruption of cell membrane in methicillin-resistant Staphylococcus aureus clinical isolate M-4 assessed as increase in red fluorescence at 32 ug/ml incubated for 2 hrs by SYTO9/PI staining based flow cytometry relative to control; type: functional; settings: dose 32 µg/ml
Staphylococcus aureus [22] = assay: Disruption of cell membrane in methicillin-resistant Staphylococcus aureus clinical isolate M-4 assessed as protein leakage at 1 to 8 times MIC incubated for 4 hrs by BCA assay; type: functional, organism-based
Staphylococcus aureus [23] = assay: Antibacterial activity against methicillin-resistant Staphylococcus aureus clinical isolate M-4 upto 128 ug/ml incubated for 16 to 18 hrs in presence of phosphatidylethanolamine by broth dilution method; type: functional, organism-based; settings: dose <= 128.0 µg/ml, time 16-18 hrs
Staphylococcus aureus [24] = assay: Antibacterial activity against methicillin-resistant Staphylococcus aureus clinical isolate M-4 upto 128 ug/ml incubated for 16 to 18 hrs in presence of cardiolipin by broth dilution method; type: functional, organism-based; settings: dose <= 128.0 µg/ml, time 16-18 hrs
[25] = Cytotoxicity against human L02 cells assessed as cell survival at 32 ug/ml by MTT assay relative to control; type: toxicity, cell-based; settings: at 32 µg/mL, read-out: Survival
[26] = Stability in sheep plasma at MBC measured for 6 hrs; type: ADME, cell-free, Ovis aries
[27] = Toxicity in KM mouse assessed as change in mental health at 5 to 80 mg/kg, sc measured for 24 hrs; type: organism-based; settings: in vivo, dose 5-80 mg/kg
[28] = Toxicity in KM mouse assessed as animal abnormality at 5 to 80 mg/kg, sc measured for 24 hrs; type: organism-based; settings: in vivo, dose 5-80 mg/kg
[29] = Toxicity in KM mouse assessed as change in creatinine level at 20 mg/kg, sc measured after 24 hrs; type: organism-based; settings: in vivo
[30] = Toxicity in KM mouse assessed as change in albumin level at 20 mg/kg, sc measured after 24 hrs; type: organism-based; settings: in vivo
[31] = Toxicity in KM mouse assessed as change in hemoglobin level at 20 mg/kg, sc measured after 24 hrs; type: organism-based; settings: in vivo
[32] = Toxicity in KM mouse assessed as change in hematocrit level at 20 mg/kg, sc measured after 24 hrs; type: organism-based; settings: in vivo
[33] = Toxicity in KM mouse assessed as histological abnormality in liver at 20 mg/kg, sc measured after 24 hrs by H and E staining based analysis; type: organism-based; settings: in vivo
[34] = Toxicity in KM mouse assessed as histological abnormality in lungs at 20 mg/kg, sc measured after 24 hrs by H and E staining based analysis; type: organism-based; settings: in vivo
Staphylococcus aureus [35] = assay: Antibacterial activity against methicillin-resistant Staphylococcus aureus clinical isolate M-4 infected in KM mouse assessed as decrease in abscesses in subcutaneous tissue at 5 to 10 mg/kg, sc measured after 24 hrs by H and E staining based analysis; type: functional, organism-based; settings: dose 5-10 mg/kg
Staphylococcus aureus [36] = assay: Antibacterial activity against methicillin-resistant Staphylococcus aureus clinical isolate M-4 infected in KM mouse assessed as decrease in erythema in subcutaneous tissue at 5 to 10 mg/kg, sc measured after 24 hrs by H and E staining based analysis; type: functional, organism-based; settings: dose 5-10 mg/kg
Staphylococcus aureus [37] = assay: Antibacterial activity against methicillin-resistant Staphylococcus aureus clinical isolate M-4 infected in KM mouse assessed as reduction in skin inflammation at 10 mg/kg, sc measured after 24 hrs by H and E staining based analysis; type: functional, organism-based
Staphylococcus aureus [38] = assay: Antibacterial activity against methicillin-resistant Staphylococcus aureus clinical isolate M-4 infected in KM mouse assessed as survival rate of bacteria at 10 mg/kg, sc measured after 24 hrs relative to control; type: functional
[39] = Toxicity in KM mouse infected with methicillin-resistant Staphylococcus aureus clinical isolate M-4 assessed as histopathological abnormality in liver at 5 to 10 mg/kg, sc measured after 24 hrs by H and E staining based analysis; type: organism-based; settings: in vivo, dose 5-10 mg/kg

SMILES: CCCCCNC(=O)C[N+](C)(C)CCCCn1c(-c2ccc(N(C)C)cc2)nc2c3ccccc3c3ccccc3c21.[Br-]
- MIC (Staphylococcus aureus [1]): 1 mg/L
- MIC (Escherichia coli): 32 mg/L
- MIC (Staphylococcus aureus [2]): 1 mg/L
- MIC (Staphylococcus aureus [3]): 0.5 mg/L
- MIC (Staphylococcus aureus [4]): 0.5 mg/L
- MIC (Staphylococcus aureus [5]): 0.5 mg/L
- MIC (Staphylococcus aureus [6]): 0.5 mg/L
- MIC (Staphylococcus aureus [7]): 1 mg/L
- HC50 at 1 h [8]: 859 µg/mL
- selectivity ratio [9]: 859
- Activity (Staphylococcus aureus [10]): Tde
- Activity (Staphylococcus aureus [11]): Tde
- Activity (Staphylococcus aureus [12]): Dose-Dependent Effect
- Activity (Staphylococcus aureus [13]): 100%
- fold change (FC) (Staphylococcus aureus [14]): 128
- fold change (FC) (Staphylococcus aureus [15]): ~1.9
- Activity (Staphylococcus aureus [16]): Active
- Activity (Staphylococcus aureus [17]): Active
- Activity (Staphylococcus aureus [18]): Active
- Activity (Staphylococcus aureus [19]): Dose-Dependent Effect
- Activity (Staphylococcus aureus [20]): Active
- Activity (Staphylococcus aureus [21]): 99.34%
- Activity (Staphylococcus aureus [22]): Active
- Activity (Staphylococcus aureus [23]): Active
- Activity (Staphylococcus aureus [24]): Active
- viability at 32 ug/ml [25]: > 72.2%
- Stability [26]: Stable
- Activity [27]: Non-Toxic
- Activity [28]: Non-Toxic
- Activity [29]: Non-Toxic
- Activity [30]: Non-Toxic
- Activity [31]: Non-Toxic
- Activity [32]: Non-Toxic
- Activity [33]: Non-Toxic
- Activity [34]: Non-Toxic
- Activity (Staphylococcus aureus [35]): Active
- Activity (Staphylococcus aureus [36]): Active
- Activity (Staphylococcus aureus [37]): Active
- survival at 10 mg/kg (Staphylococcus aureus [38]): 0.01%
- Activity [39]: Non-Toxic
